Experimental data as given in ChEMBL document CHEMBL5465560, “Selectivity Literature for EUbOPEN Chemogenomic Library” (2024).

Legend:
[1] = target: Cyclin-dependent kinase 18 (Homo sapiens) (UniProt Q07002); test: Selectivity interaction (KinomeScan (DiscoverX)) EUB0000092b CDK18; settings: at 10 µM
[2] = target: Tyrosine-protein kinase Fer (Homo sapiens) (UniProt P16591); test: Selectivity interaction (KinomeScan (DiscoverX)) EUB0000655a FER; settings: at 10 µM
[3] = target: T1, Mitogen-activated protein kinase kinase kinase 3 (Homo sapiens) (UniProt Q99759); test: Selectivity interaction (Kinase panel (KiNativ target engagement assay in Jurkat cells)) EUB0001635a MAP3K3; format: cell-based; settings: Selectivity number of off-targets 0.0, Selectivity number of targets 233.0, Source Knowledge https://www.sciencedirect.com/science/article/pii/S2451945619300674?via%3Dihub, at 1 µM
T1 sequence (whole entry): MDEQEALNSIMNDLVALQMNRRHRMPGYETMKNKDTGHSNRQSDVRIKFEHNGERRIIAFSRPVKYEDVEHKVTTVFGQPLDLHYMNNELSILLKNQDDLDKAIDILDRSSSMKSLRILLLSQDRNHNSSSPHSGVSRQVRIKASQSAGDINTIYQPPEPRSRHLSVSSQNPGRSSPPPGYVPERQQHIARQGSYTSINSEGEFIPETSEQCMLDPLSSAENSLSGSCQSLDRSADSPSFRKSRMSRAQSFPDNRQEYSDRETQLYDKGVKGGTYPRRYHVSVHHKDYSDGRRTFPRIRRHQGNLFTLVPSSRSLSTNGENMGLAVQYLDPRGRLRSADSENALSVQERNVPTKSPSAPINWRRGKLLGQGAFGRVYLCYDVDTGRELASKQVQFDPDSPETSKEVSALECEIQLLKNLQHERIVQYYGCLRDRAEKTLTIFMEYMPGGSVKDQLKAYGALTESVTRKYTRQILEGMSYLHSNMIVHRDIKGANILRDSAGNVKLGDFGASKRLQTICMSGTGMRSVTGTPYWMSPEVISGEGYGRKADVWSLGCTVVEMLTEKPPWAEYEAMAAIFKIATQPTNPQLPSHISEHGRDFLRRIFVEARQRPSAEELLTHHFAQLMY

[4] = target: Mitogen-activated protein kinase 11 (Homo sapiens) (UniProt Q15759); test: Selectivity interaction (KinomeScan (DiscoverX)) EUB0000666a MAPK11; settings: at 10 µM
[5] = target: Leucine-rich repeat serine/threonine-protein kinase 2 (Homo sapiens, UniProt Q5S007); settings: at 10 µM
[6] = target: Histone-lysine N-methyltransferase KMT5B (Homo sapiens) (UniProt Q4FZB7); test: Selectivity interaction (Transferase panel (protein, RNA, and DNA methyltransferases. and EP300 (acetyltransferase))) EUB0000270b SUV420H1
[7] = target: T2, Ephrin type-A receptor 8 (Homo sapiens) (UniProt P29322); test: Selectivity interaction (Kinase panel (Invitrogen)) EUB0000639a EPHA8; settings: at 200 nM
T2 sequence (whole entry): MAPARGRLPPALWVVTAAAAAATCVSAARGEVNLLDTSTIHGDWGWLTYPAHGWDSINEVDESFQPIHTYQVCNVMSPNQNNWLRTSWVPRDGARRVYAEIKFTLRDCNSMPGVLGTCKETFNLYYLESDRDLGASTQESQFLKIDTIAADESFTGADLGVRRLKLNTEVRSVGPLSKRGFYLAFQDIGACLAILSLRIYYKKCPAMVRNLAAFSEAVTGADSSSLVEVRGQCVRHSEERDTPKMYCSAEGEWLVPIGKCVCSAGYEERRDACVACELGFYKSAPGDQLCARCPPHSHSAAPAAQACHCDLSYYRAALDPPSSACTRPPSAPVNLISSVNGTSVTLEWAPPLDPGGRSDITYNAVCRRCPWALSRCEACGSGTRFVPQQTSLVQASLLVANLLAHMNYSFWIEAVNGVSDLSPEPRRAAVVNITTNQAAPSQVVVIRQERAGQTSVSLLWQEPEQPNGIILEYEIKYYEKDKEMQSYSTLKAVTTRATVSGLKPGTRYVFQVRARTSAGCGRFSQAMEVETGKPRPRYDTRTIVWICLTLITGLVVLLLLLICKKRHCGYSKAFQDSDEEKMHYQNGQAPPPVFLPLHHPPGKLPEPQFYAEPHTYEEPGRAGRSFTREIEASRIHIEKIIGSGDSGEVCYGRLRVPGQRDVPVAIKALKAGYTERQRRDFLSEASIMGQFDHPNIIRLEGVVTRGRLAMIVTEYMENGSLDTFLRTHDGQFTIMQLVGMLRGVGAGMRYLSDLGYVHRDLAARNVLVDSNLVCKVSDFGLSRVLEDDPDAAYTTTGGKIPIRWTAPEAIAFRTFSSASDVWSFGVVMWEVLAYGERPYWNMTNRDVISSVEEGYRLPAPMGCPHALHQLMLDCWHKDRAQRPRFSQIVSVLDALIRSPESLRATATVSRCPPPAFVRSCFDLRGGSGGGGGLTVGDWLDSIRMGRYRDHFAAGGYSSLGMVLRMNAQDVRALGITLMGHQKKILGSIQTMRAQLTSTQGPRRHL

[8] = target: Serine/threonine-protein kinase PAK 3 (Homo sapiens) (UniProt O75914); test: Selectivity interaction (KinomeScan (DiscoverX)) EUB0000607a PAK3; settings: at 10 µM
[9] = target: Mitogen-activated protein kinase 7 (Homo sapiens) (UniProt Q13164); test: Selectivity interaction (KinomeScan (DiscoverX)) EUB0001049a MAPK7; settings: at 1 µM
Insulin receptor = Insulin receptor (Homo sapiens, UniProt P06213); test: Selectivity interaction (KinomeScan (DiscoverX)) EUB0001049a INSR; settings: at 1 µM
[10] = target: 5-hydroxytryptamine receptor 2B (Homo sapiens, UniProt P41595); test: Selectivity interaction (Panel of non-epigenetic targets (kinases, GPCRs, ion channels, and transporters, Eurofins) ) EUB0000271b HTR2B; settings: at 1 µM
[11] = target: RAF proto-oncogene serine/threonine-protein kinase (Homo sapiens) (UniProt P04049); settings: at 10 µM
[12] = target: Serine/threonine-protein kinase 25 (Homo sapiens) (UniProt O00506); test: Selectivity interaction (KinomeScan (DiscoverX)) EUB0000045b STK25
[13] = target: Tyrosine-protein kinase Fer (Homo sapiens) (UniProt P16591); test: Selectivity interaction (KinomeScan (DiscoverX)) EUB0000045b FER
[14] = target: BDNF/NT-3 growth factors receptor (Homo sapiens) (UniProt Q16620); test: Selectivity interaction (Ambit KINOMEscan and KiNATiv profiling in Jurkat cells) EUB0000090b NTRK2; format: cell-based; settings: at 1 µM
[15] = target: Tyrosine-protein kinase Lck (Homo sapiens, UniProt P06239); test: Selectivity interaction (Ambit KINOMEscan and KiNATiv profiling in Jurkat cells) EUB0000090b LCK; format: cell-based; settings: at 1 µM
[16] = target: Mitogen-activated protein kinase 10 (Homo sapiens, UniProt P53779); test: Selectivity interaction (KinomeScan (DiscoverX)) EUB0001619a MAPK10; settings: at 1 µM
Sequence of Mitogen-activated protein kinase 10 (P53779 whole entry): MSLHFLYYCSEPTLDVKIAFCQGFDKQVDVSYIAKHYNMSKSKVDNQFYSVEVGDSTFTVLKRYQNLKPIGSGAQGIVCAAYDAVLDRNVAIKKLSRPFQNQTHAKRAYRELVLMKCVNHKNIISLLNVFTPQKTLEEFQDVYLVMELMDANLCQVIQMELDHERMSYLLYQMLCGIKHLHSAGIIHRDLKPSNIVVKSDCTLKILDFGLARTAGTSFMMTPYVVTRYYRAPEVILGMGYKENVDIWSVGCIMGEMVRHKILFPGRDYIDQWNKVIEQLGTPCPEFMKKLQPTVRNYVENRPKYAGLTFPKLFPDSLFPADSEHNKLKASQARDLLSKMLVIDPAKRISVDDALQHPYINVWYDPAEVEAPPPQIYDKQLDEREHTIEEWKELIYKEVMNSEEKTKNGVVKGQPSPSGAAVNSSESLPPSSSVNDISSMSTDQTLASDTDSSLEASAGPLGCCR

Sequence of Tyrosine-protein kinase Fer (Homo sapiens) (P16591 whole entry, looked up): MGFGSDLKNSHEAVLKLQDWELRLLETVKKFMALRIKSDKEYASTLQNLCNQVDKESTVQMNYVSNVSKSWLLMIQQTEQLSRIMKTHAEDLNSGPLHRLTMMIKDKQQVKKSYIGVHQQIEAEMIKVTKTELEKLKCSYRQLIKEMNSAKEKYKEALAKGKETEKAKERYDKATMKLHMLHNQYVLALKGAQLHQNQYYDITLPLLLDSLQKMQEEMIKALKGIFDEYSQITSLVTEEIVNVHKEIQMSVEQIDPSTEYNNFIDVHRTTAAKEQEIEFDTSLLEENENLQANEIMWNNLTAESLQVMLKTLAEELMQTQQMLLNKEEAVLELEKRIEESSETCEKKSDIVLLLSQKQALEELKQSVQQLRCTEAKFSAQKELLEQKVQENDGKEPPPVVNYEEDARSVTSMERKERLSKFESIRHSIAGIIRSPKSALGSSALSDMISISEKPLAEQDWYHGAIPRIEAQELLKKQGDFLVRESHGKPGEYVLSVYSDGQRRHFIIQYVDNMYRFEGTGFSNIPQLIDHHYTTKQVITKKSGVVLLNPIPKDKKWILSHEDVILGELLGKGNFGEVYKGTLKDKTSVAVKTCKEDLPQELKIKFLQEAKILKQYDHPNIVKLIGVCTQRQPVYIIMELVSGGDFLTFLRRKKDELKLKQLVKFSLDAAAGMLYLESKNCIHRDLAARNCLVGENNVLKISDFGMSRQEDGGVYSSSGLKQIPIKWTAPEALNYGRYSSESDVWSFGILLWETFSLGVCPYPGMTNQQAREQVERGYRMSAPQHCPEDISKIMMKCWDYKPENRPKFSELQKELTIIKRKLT
Sequence of Histone-lysine N-methyltransferase KMT5B (Homo sapiens) (Q4FZB7 whole entry, looked up): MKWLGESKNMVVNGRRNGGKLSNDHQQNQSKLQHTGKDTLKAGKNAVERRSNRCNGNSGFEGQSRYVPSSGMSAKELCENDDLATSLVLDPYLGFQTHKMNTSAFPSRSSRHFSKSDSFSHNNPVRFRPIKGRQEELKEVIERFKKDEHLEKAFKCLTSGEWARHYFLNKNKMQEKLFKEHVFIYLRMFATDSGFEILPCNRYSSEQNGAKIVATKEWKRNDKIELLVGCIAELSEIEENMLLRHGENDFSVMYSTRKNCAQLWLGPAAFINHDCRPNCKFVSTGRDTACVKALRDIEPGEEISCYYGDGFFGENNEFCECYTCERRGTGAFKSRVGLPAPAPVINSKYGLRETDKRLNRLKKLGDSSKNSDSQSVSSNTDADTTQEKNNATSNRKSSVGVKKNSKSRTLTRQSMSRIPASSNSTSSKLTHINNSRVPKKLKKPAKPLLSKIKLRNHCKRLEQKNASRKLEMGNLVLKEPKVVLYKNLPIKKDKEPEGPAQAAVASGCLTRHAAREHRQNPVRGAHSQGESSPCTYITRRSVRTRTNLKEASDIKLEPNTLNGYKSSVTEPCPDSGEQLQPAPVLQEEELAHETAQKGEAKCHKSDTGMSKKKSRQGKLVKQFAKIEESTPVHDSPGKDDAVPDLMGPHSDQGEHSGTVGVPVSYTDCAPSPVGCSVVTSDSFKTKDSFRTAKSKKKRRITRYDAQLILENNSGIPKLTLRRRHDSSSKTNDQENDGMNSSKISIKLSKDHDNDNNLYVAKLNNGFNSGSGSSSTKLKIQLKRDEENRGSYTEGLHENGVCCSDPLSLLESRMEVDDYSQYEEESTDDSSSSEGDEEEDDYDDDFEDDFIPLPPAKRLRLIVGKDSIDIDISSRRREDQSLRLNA
Sequence of Serine/threonine-protein kinase 25 (Homo sapiens) (O00506 whole entry, looked up): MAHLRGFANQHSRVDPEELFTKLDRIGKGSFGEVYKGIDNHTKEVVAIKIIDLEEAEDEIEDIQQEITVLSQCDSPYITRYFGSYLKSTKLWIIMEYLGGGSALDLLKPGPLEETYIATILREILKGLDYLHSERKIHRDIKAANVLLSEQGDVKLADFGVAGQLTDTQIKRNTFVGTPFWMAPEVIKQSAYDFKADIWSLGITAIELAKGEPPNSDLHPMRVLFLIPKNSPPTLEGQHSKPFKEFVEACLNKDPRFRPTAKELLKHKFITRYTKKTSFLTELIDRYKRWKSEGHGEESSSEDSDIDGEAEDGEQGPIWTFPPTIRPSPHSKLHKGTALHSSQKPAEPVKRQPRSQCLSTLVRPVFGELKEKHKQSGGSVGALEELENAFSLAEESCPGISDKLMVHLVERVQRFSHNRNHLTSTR
Sequence of RAF proto-oncogene serine/threonine-protein kinase (Homo sapiens) (P04049 whole entry): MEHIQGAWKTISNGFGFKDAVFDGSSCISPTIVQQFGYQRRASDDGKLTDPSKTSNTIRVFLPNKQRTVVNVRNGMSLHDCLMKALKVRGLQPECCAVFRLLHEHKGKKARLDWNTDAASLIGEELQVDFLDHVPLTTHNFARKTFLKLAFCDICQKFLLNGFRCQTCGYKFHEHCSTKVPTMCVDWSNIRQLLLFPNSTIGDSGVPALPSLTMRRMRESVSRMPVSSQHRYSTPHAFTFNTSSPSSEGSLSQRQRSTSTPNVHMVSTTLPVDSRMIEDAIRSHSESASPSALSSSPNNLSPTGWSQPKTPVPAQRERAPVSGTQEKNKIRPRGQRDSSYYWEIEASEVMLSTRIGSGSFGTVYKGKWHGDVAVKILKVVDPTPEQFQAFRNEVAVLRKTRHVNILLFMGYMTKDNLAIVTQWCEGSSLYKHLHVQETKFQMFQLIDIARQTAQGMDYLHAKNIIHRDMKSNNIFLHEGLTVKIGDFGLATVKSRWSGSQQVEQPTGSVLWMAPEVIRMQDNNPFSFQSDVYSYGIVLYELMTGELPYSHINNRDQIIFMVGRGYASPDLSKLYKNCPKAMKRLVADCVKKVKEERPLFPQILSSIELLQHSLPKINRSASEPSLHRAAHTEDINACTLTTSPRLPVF
Sequence of Mitogen-activated protein kinase 11 (Homo sapiens) (Q15759 whole entry): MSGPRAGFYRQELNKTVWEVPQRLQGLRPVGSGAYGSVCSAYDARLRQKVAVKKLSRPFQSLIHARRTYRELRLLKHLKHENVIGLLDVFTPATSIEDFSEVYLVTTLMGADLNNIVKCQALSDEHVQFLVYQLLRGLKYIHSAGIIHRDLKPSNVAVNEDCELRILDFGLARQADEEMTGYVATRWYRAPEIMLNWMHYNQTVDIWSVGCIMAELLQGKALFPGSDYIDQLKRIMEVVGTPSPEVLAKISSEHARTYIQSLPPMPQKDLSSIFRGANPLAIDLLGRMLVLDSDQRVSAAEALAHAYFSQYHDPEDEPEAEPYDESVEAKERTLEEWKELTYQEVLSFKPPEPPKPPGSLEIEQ
Sequence of BDNF/NT-3 growth factors receptor (Homo sapiens) (Q16620 32-822 limits assumed): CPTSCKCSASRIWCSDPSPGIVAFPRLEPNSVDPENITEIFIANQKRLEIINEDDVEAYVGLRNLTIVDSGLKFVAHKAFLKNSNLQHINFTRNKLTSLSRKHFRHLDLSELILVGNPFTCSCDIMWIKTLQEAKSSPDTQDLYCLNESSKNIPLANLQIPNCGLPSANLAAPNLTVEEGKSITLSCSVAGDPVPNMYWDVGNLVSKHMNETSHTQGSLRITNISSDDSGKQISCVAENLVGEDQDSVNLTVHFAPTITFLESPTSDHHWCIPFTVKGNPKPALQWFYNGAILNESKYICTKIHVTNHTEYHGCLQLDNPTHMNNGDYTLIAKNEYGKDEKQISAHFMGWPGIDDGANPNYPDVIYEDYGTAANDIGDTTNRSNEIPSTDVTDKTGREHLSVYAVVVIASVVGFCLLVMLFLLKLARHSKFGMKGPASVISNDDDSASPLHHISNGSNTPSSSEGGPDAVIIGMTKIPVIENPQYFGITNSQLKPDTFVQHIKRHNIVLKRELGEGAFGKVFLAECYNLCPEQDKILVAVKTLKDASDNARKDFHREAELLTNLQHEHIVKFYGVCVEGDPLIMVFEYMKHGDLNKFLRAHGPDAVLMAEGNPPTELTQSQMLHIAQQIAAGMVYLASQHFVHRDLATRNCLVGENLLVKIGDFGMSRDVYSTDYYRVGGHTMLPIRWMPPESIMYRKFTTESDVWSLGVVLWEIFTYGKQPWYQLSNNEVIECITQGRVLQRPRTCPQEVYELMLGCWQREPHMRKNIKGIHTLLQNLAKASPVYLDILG
Sequence of 5-hydroxytryptamine receptor 2B (P41595 whole entry): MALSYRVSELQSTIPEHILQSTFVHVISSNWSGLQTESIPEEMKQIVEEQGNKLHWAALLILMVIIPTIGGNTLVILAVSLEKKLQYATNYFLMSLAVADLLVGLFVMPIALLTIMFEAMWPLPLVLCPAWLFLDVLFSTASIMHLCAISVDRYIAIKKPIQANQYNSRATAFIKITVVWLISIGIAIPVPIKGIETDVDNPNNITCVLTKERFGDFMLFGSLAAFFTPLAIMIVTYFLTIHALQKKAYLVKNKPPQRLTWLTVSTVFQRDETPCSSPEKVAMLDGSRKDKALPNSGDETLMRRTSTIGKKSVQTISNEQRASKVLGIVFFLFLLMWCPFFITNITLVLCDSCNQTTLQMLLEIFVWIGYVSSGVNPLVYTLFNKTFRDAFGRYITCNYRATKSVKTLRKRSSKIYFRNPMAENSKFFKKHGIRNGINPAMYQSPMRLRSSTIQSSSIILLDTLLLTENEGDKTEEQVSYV

Structure (SMILES): CCC(=O)N1CCN(c2ccc(-n3c(=O)ccc4cnc5ccc(-c6cnc7ccccc7c6)cc5c43)cc2C(F)(F)F)CC1
- % of control [1]: 97%

Structure (SMILES): CN(C)CCOc1ccc(-c2nc(-c3ccncc3)c(-c3ccc4c(c3)CC/C4=N\O)[nH]2)cc1
- % of control [2]: 100%

Structure (SMILES): C=CC(=O)Nc1ccc(C(=O)Nc2[nH]nc3c2CN(C(=O)N[C@H](CN(C)C)c2ccccc2)C3(C)C)cc1
- % of engagement [3]: 4.7%

Structure (SMILES): O=C(NOC[C@H](O)CO)c1ccc(F)c(F)c1Nc1ccc(I)cc1F
- % of control [4]: 100%

Structure (SMILES): Cc1cc([C@@H](C)Nc2ccccc2C(=O)O)c2nc(N3CCOCC3)cc(=O)n2c1 [AZD-6482]
- % of control [5]: 100%

Structure (SMILES): Cc1cc(CN)cc(C)c1-c1ncn(C)c1-c1cncn1C
- % activity ([6]; at 1 µM): > 90%
- % activity ([6]; at 10 µM): > 80%

Structure (SMILES): CC[C@@H]1[C@H](F)C(=O)N[C@@H]1COc1nccc2cc(C(N)=O)c(OC)cc12 [ZIMLOVISERTIB]
- % of inhibition [7]: -0.726%

Structure (SMILES): CNC(=O)Nc1ccc(-c2nc(N3CC4CCC(C3)O4)c3cnn(C4CCC5(CC4)OCCO5)c3n2)cc1
- % of control [8]: 99%

Structure (SMILES): COc1cc(Nc2nc(C)cc(-c3cnn4nc(OC)ccc34)n2)cc(C(F)(F)F)c1
- % of control [9]: 83%
- % of control (Insulin receptor): 71%

Structure (SMILES): Cc1cc(C)cc([C@@H]2c3cc(C)ccc3NC(=O)CN2C(=O)c2ccc(Br)s2)c1
- % of inhibition [10]: 1%

Structure (SMILES): COCC(=O)NC/C=C/c1ccc2ncnc(Nc3ccc(Oc4ccc(C)nc4)c(C)c3)c2c1 [CP-724714]
- % of control [11]: 100%

Structure (SMILES): C=CC(=O)Nc1cc(-n2c(=O)ccc3cnc4ccc(-c5ccc(NS(C)(=O)=O)cc5)cc4c32)ccc1C
- % of control ([12]; at 1 µM): 100%
- % of control ([12]; at 10 µM): 65%
- % of control ([13]; at 1 µM): 66%
- % of control ([13]; at 10 µM): 89%

Structure (SMILES): CN(C)C/C=C/C(=O)Nc1ccc(C(=O)N2CCCC(Nc3ncc(Cl)c(-c4c[nH]c5ccccc45)n3)C2)cc1 (stereo not given)
- % of control [14]: 76%
- % of control [15]: 84%

Structure (SMILES): N#Cc1cccc(-c2c[nH]c3ncnc(N4CCOCC4)c23)c1
- % of control [16]: 100%
